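In this assay, cells in 96-well plates receive the compound at five concentrations for 48 hours. Endpoints are linearly interpolated between the surrounding concentrations. Abbreviation: GI50, concentration required for 50% inhibition of growth.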 Calls of active or inactive are those of the source. No stated cut-off is given here; in the data, active = GI50 up to about 1.1 µM and inactive = higher.
Columns and labels:
Test in all cases: NCI anticancer screen, dose series, 48 h
SK-OV-3 = tested on: SK-OV-3
SF-268 = tested on: SF-268
MDA-MB-435 = tested on: MDA-MB-435
M14 = tested on: M14
NCI-H226 = tested on: NCI-H226
SW-620 = tested on: SW-620
SNB-19 = tested on: SNB-19
OVCAR-5 = tested on: OVCAR-5
HCC 2998 = tested on: HCC 2998
OVCAR-4 = tested on: OVCAR-4
IGROV-1 = tested on: IGROV-1
CCRF-CEM = tested on: CCRF-CEM
RPMI-8226 = tested on: RPMI-8226
A498 = tested on: A498
SF-295 = tested on: SF-295
RXF 393 = tested on: RXF 393
HT-29 = tested on: HT-29
KM12 = tested on: KM12
HCT-116 = tested on: HCT-116

Structure (SMILES) | GI50 (SK-OV-3) | GI50 (SF-268) | GI50 (MDA-MB-435) | GI50 (M14) | GI50 (NCI-H226) | GI50 (SW-620) | GI50 (SNB-19) | GI50 (OVCAR-5) | GI50 (HCC 2998) | GI50 (OVCAR-4) | GI50 (IGROV-1) | GI50 (CCRF-CEM) | GI50 (RPMI-8226) | GI50 (A498) | GI50 (SF-295) | GI50 (RXF 393) | GI50 (HT-29) | GI50 (KM12) | GI50 (HCT-116)
CC(C)(C)OC/C=C1\C(=O)O[C@H]2C[C@@H](O[Si](C)(C)C(C)(C)C)C[C@@H]12 | > 100 µM (inactive) | > 100 µM (inactive) | 96.2 µM (inactive) | 61.8 µM (inactive) | > 100 µM (inactive) | > 100 µM (inactive) | > 100 µM (inactive) | > 100 µM (inactive) | > 100 µM (inactive) | 92.3 µM (inactive) | > 100 µM (inactive) | 33.9 µM (inactive) | 46 µM (inactive) | > 100 µM (inactive) | 48.6 µM (inactive) | 32.2 µM (inactive) | 73.6 µM (inactive) | 67.9 µM (inactive) | 26.4 µM (inactive)
N=C(N)N/N=C(\c1ccc(F)cc1)c1ccc(C(F)(F)F)cc1 | 0.817 µM (active) | 0.593 µM (active) | 0.075 µM (active) | 0.298 µM (active) | 0.348 µM (active) | 0.254 µM (active) | 0.573 µM (active) | 0.497 µM (active) | 0.542 µM (active) | 1.1 µM (active) | 0.284 µM (active) | 0.329 µM (active) | 0.376 µM (active) | < 0.01 µM (active) | 0.264 µM (active) | 0.22 µM (active) | 0.412 µM (active) | 0.203 µM (active) | 0.104 µM (active)
COc1ccccc1C(C1=C(O)COC1=O)c1cc2c(cc1OC(C)=O)OCO2 (stereo unspecified) | > 100 µM (inactive) | > 100 µM (inactive) | > 100 µM (inactive) | > 100 µM (inactive) | > 100 µM (inactive) | > 100 µM (inactive) | > 100 µM (inactive) | > 100 µM (inactive) | > 100 µM (inactive) | > 100 µM (inactive) | > 100 µM (inactive) | > 100 µM (inactive) | > 100 µM (inactive) | > 100 µM (inactive) | > 100 µM (inactive) | > 100 µM (inactive) | > 100 µM (inactive) | > 100 µM (inactive) | > 100 µM (inactive)
COc1cc(C)cc2c(-c3c(O)cc(O)c4c3C[C@H](C)N[C@H]4C)cc(-c3cc(-c4c(O)cc(O)c5c4C[C@H](C)N[C@H]5C)c4cc(C)cc(OC)c4c3O)c(O)c12 | > 100 µM (inactive) | > 100 µM (inactive) | 54.3 µM (inactive) | > 100 µM (inactive) | > 100 µM (inactive) | > 100 µM (inactive) | > 100 µM (inactive) | 21.4 µM (inactive) | > 100 µM (inactive) | > 100 µM (inactive) | > 100 µM (inactive) | > 100 µM (inactive) | 83.4 µM (inactive) | > 100 µM (inactive) | 66.4 µM (inactive) | > 100 µM (inactive) | 36 µM (inactive) | 56.2 µM (inactive) | 54.1 µM (inactive)
COc1cc2c(cc1OC)C(=O)/C(=C/c1ccccc1)C2 | > 100 µM (inactive) | 73.3 µM (inactive) | > 87.7 µM (inactive) | > 62.5 µM (inactive) | > 81.8 µM (inactive) | 94 µM (inactive) | > 100 µM (inactive) | > 100 µM (inactive) | 78.3 µM (inactive) | > 85.5 µM (inactive) | > 67 µM (inactive) | 27.5 µM (inactive) | 19.1 µM (inactive) | 4.54 µM (inactive) | 76.9 µM (inactive) | > 34.8 µM (inactive) | 45.3 µM (inactive) | 60.8 µM (inactive) | 48 µM (inactive)
C/C(C=O)=C/[C@@]1(C)O[C@@H](C)[C@@](C)(O)[C@@H]1O | > 100 µM (inactive) | 25.2 µM (inactive) | 31 µM (inactive) | 32.5 µM (inactive) | > 100 µM (inactive) | 87.3 µM (inactive) | 61.1 µM (inactive) | > 100 µM (inactive) | 17.4 µM (inactive) | > 100 µM (inactive) | > 100 µM (inactive) | 36.9 µM (inactive) | 30.9 µM (inactive) | 83.6 µM (inactive) | 41.1 µM (inactive) | > 100 µM (inactive) | > 100 µM (inactive) | 35.4 µM (inactive) | 93.1 µM (inactive)
Cc1ccc(S(=O)(=O)N2CCN3C(=O)c4ccccc4C32c2ccc(F)cc2)cc1 (stereo unspecified) | > 100 µM (inactive) | 98.4 µM (inactive) | 32.8 µM (inactive) | > 100 µM (inactive) | 64 µM (inactive) | 87.9 µM (inactive) | > 100 µM (inactive) | > 100 µM (inactive) | > 100 µM (inactive) | > 100 µM (inactive) | 22.9 µM (inactive) | 35.1 µM (inactive) | 23.8 µM (inactive) | 16.2 µM (inactive) | 85.7 µM (inactive) | 65.2 µM (inactive) | 40.6 µM (inactive) | 43.7 µM (inactive) | 42.1 µM (inactive)
N#Cc1sc2nc3ccccc3n2c1N | 40.1 µM (inactive) | 60.3 µM (inactive) | > 100 µM (inactive) | > 100 µM (inactive) | 95.9 µM (inactive) | 92.5 µM (inactive) | > 100 µM (inactive) | > 100 µM (inactive) | 36.2 µM (inactive) | > 100 µM (inactive) | 58.7 µM (inactive) | 29.3 µM (inactive) | 84.3 µM (inactive) | 39.4 µM (inactive) | > 100 µM (inactive) | 17.6 µM (inactive) | 75 µM (inactive) | 0.344 µM (active) | > 100 µM (inactive)
C=C1C(=O)O[C@@H]2[C@H]1C[C@@H](O)[C@H](C)[C@@](O)(C(=O)/C=C/C)[C@H]2OC(=O)C(C)CC (stereo partly specified) | 42.2 µM (inactive) | 15.4 µM (inactive) | 3.29 µM (inactive) | 3.3 µM (inactive) | 43.4 µM (inactive) | 2.42 µM (inactive) | > 46.3 µM (inactive) | 5.47 µM (inactive) | 14.5 µM (inactive) | 6.97 µM (inactive) | 2.58 µM (inactive) | 0.0428 µM (active) | 1.72 µM (inactive) | 18.7 µM (inactive) | 37.5 µM (inactive) | 2.15 µM (inactive) | 2.24 µM (inactive) | 14.8 µM (inactive) | 1.84 µM (inactive)
N#C/C=C\c1ccc(-c2cc(C(F)(F)F)cc(C(F)(F)F)c2)o1 | 30.3 µM (inactive) | 25.9 µM (inactive) | 2.57 µM (inactive) | 56.4 µM (inactive) | 55.8 µM (inactive) | 49.7 µM (inactive) | 30 µM (inactive) | > 100 µM (inactive) | 21.6 µM (inactive) | 91.8 µM (inactive) | 47.2 µM (inactive) | 47 µM (inactive) | > 100 µM (inactive) | 26.5 µM (inactive) | 19.4 µM (inactive) | 44.6 µM (inactive) | 94.4 µM (inactive) | 49 µM (inactive) | 35.4 µM (inactive)
O=C1/C(=C/c2ccccc2)N=C(c2ccccc2)N1n1c(-c2ccccc2)nc2ccccc2c1=O | > 100 µM (inactive) | 64.6 µM (inactive) | 87.9 µM (inactive) | > 100 µM (inactive) | 64 µM (inactive) | > 100 µM (inactive) | 52.8 µM (inactive) | > 100 µM (inactive) | > 100 µM (inactive) | 60 µM (inactive) | > 100 µM (inactive) | 32.8 µM (inactive) | 28.8 µM (inactive) | 92 µM (inactive) | 91 µM (inactive) | 86.5 µM (inactive) | 70.5 µM (inactive) | 61.7 µM (inactive) | 53 µM (inactive)
O=c1[nH]/c(=C/c2ccc(OCc3ccccc3)cn2)c(=O)[nH]/c1=C/c1ccc(O)cc1 | 4.99 µM (inactive) | 1.04 µM (active) | 0.109 µM (active) | 0.94 µM (active) | 51.4 µM (inactive) | 0.537 µM (active) | 2.15 µM (inactive) | 8.32 µM (inactive) | 0.991 µM (active) | 0.219 µM (active) | 0.764 µM (active) | 0.0454 µM (active) | 0.766 µM (active) | > 37.2 µM (inactive) | 8.85 µM (inactive) | 0.865 µM (active) | 1.48 µM (inactive) | 1.23 µM (inactive) | 1.08 µM (active)
CC(C)N1CN(c2ccccc2)C2(CCN(CCCC(=O)c3ccc(F)cc3)CC2)C1=O | 42 µM (inactive) | 6.7 µM (inactive) | 11.1 µM (inactive) | 15.3 µM (inactive) | 6.64 µM (inactive) | 4.99 µM (inactive) | 12.7 µM (inactive) | 5.42 µM (inactive) | 7.14 µM (inactive) | 3.26 µM (inactive) | 3.85 µM (inactive) | 1.83 µM (inactive) | 10.3 µM (inactive) | 2.97 µM (inactive) | 10.8 µM (inactive) | 28.4 µM (inactive) | 1.79 µM (inactive) | 22 µM (inactive) | 2.04 µM (inactive)
O=C(O)Cc1cccc2c(=O)c3cccc([N+](=O)[O-])c3oc12 | > 100 µM (inactive) | > 100 µM (inactive) | > 100 µM (inactive) | > 100 µM (inactive) | > 100 µM (inactive) | > 100 µM (inactive) | > 100 µM (inactive) | > 100 µM (inactive) | > 100 µM (inactive) | > 100 µM (inactive) | > 100 µM (inactive) | > 100 µM (inactive) | > 100 µM (inactive) | > 100 µM (inactive) | > 100 µM (inactive) | > 100 µM (inactive) | > 100 µM (inactive) | > 100 µM (inactive) | > 100 µM (inactive)
